Reference: the supplement of paper PMC10307832

Legend:
Test in all cases: relative viability (nuclei count vs DMSO), 5 days (fraction); higher = more cells survive
NCI-H1651 = system: NCI-H1651
Procedure, shortened: (§1)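 Lung cancer cell lines in 1536-well plates were dosed by pin tool the day after seeding, either with one drug alone or with a fixed anchor-drug dose plus five library-drug doses (not always all listed) in √10 steps. After 5 days, cells were fixed and their nuclei stained in one step (final 0.05% Triton X-100, 1% formaldehyde, 1 ug/ml Hoechst), then counted on 4× images. Relative viability is the nuclei count in treated wells divided by that in vehicle wells. Values are medians of duplicate plates.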

NCI-H2405 = system: NCI-H2405
Procedure, shortened: as §1

NCI-H1793 = system: NCI-H1793
Procedure, shortened: as §1

LCLC-103H = system: LCLC-103H
Procedure, shortened: as §1

ChaGo-K-1 = system: ChaGo-K-1
Procedure, shortened: as §1

NCI-H1395 = system: NCI-H1395
Procedure, shortened: as §1

NCI-H2087 = system: NCI-H2087
Procedure, shortened: as §1

SK-MES-1 = system: SK-MES-1
Procedure, shortened: as §1

NCI-H1563 = system: NCI-H1563
Procedure, shortened: as §1

HCC-827 = system: HCC-827
Procedure, shortened: as §1

NCI-H838 = system: NCI-H838
Procedure, shortened: as §1

EPLC-272H = system: EPLC-272H
Procedure, shortened: as §1

NCI-H520 = system: NCI-H520
Procedure, shortened: as §1

NCI-H2085 = system: NCI-H2085
Procedure, shortened: as §1

EMC-BAC-2 = system: EMC-BAC-2
Procedure, shortened: as §1

LU99A = system: LU99A
Procedure, shortened: as §1

COR-L23 = system: COR-L23
Procedure, shortened: as §1

NCI-H2023 = system: NCI-H2023
Procedure, shortened: as §1

NCI-H1944 = system: NCI-H1944
Procedure, shortened: as §1

NCI-H650 = system: NCI-H650
Procedure, shortened: as §1

H3255 = system: H3255
Procedure, shortened: as §1

## CCN(CC)CCCCNc1ncc2cc(-c3cc(OC)cc(OC)c3)c(NC(=O)NC(C)(C)C)nc2n1 + COc1cc2c(Oc3ccc(NC(=O)C4(C(=O)Nc5ccc(F)cc5)CC4)cc3F)ccnc2cc1OCCCN1CCOCC1 [Foretinib] (partner 0.25 µM)
NCI-H1651; first compound 0.01 µM
  relative viability: 0.789
NCI-H1651; first compound 0.03162 µM
  relative viability: 0.949
NCI-H1651; first compound 0.1 µM
  relative viability: 0.82
NCI-H1651; first compound 0.3162 µM
  relative viability: 0.761
NCI-H1651; first compound 1 µM
  relative viability: 0.748
NCI-H2405; first compound 0.01 µM
  relative viability: 1.05
NCI-H2405; first compound 0.03162 µM
  relative viability: 1.05
NCI-H2405; first compound 0.1 µM
  relative viability: 1.03
NCI-H2405; first compound 0.3162 µM
  relative viability: 1.07
NCI-H2405; first compound 1 µM
  relative viability: 1.04
NCI-H1793; first compound 0.01 µM
  relative viability: 0.734
NCI-H1793; first compound 0.03162 µM
  relative viability: 0.759
NCI-H1793; first compound 0.1 µM
  relative viability: 0.716
NCI-H1793; first compound 0.3162 µM
  relative viability: 0.676
NCI-H1793; first compound 1 µM
  relative viability: 0.403
LCLC-103H; first compound 0.01 µM
  relative viability: 0.942
LCLC-103H; first compound 0.03162 µM
  relative viability: 0.866
LCLC-103H; first compound 0.1 µM
  relative viability: 0.858
LCLC-103H; first compound 0.3162 µM
  relative viability: 0.755
LCLC-103H; first compound 1 µM
  relative viability: 0.597
ChaGo-K-1; first compound 0.01 µM
  relative viability: 0.903
ChaGo-K-1; first compound 0.03162 µM
  relative viability: 1.05
ChaGo-K-1; first compound 0.1 µM
  relative viability: 0.936
ChaGo-K-1; first compound 0.3162 µM
  relative viability: 0.956
ChaGo-K-1; first compound 1 µM
  relative viability: 0.757
NCI-H1395; first compound 0.01 µM
  relative viability: 0.999
NCI-H1395; first compound 0.03162 µM
  relative viability: 1.02
NCI-H1395; first compound 0.1 µM
  relative viability: 0.912
NCI-H1395; first compound 0.3162 µM
  relative viability: 0.887
NCI-H1395; first compound 1 µM
  relative viability: 0.818
NCI-H2087; first compound 0.01 µM
  relative viability: 1.25
NCI-H2087; first compound 0.03162 µM
  relative viability: 1.13
NCI-H2087; first compound 0.1 µM
  relative viability: 1.45
NCI-H2087; first compound 0.3162 µM
  relative viability: 1.16
NCI-H2087; first compound 1 µM
  relative viability: 1.21
SK-MES-1; first compound 0.01 µM
  relative viability: 0.973
SK-MES-1; first compound 0.03162 µM
  relative viability: 1.17
SK-MES-1; first compound 0.1 µM
  relative viability: 0.88
SK-MES-1; first compound 0.3162 µM
  relative viability: 1.12
SK-MES-1; first compound 1 µM
  relative viability: 0.889
NCI-H1563; first compound 0.01 µM
  relative viability: 0.921
NCI-H1563; first compound 0.03162 µM
  relative viability: 0.896
NCI-H1563; first compound 0.1 µM
  relative viability: 1.03
NCI-H1563; first compound 0.3162 µM
  relative viability: 0.907
NCI-H1563; first compound 1 µM
  relative viability: 0.748
HCC-827; first compound 0.01 µM
  relative viability: 1.05
HCC-827; first compound 0.03162 µM
  relative viability: 1.01
HCC-827; first compound 0.1 µM
  relative viability: 1.19
HCC-827; first compound 0.3162 µM
  relative viability: 1.17
HCC-827; first compound 1 µM
  relative viability: 1.05
NCI-H838; first compound 0.01 µM
  relative viability: 1.01
NCI-H838; first compound 0.03162 µM
  relative viability: 0.958
NCI-H838; first compound 0.1 µM
  relative viability: 1.19
NCI-H838; first compound 0.3162 µM
  relative viability: 0.986
NCI-H838; first compound 1 µM
  relative viability: 0.789
EPLC-272H; first compound 0.01 µM
  relative viability: 0.63
EPLC-272H; first compound 0.03162 µM
  relative viability: 0.877
EPLC-272H; first compound 0.1 µM
  relative viability: 0.693
EPLC-272H; first compound 0.3162 µM
  relative viability: 0.741
EPLC-272H; first compound 1 µM
  relative viability: 0.644
NCI-H520; first compound 0.01 µM
  relative viability: 0.677
NCI-H520; first compound 0.03162 µM
  relative viability: 0.834
NCI-H520; first compound 0.1 µM
  relative viability: 1.15
NCI-H520; first compound 0.3162 µM
  relative viability: 0.543
NCI-H520; first compound 1 µM
  relative viability: 0.326
NCI-H2085; first compound 0.01 µM
  relative viability: 0.968
NCI-H2085; first compound 0.03162 µM
  relative viability: 0.821
NCI-H2085; first compound 0.1 µM
  relative viability: 1
NCI-H2085; first compound 0.3162 µM
  relative viability: 0.897
NCI-H2085; first compound 1 µM
  relative viability: 0.866
EMC-BAC-2; first compound 0.01 µM
  relative viability: 0.54
EMC-BAC-2; first compound 0.03162 µM
  relative viability: 1.02
EMC-BAC-2; first compound 0.1 µM
  relative viability: 0.983
EMC-BAC-2; first compound 0.3162 µM
  relative viability: 1.13
EMC-BAC-2; first compound 1 µM
  relative viability: 0.952
LU99A; first compound 0.01 µM
  relative viability: 0.828
LU99A; first compound 0.03162 µM
  relative viability: 0.888
LU99A; first compound 0.1 µM
  relative viability: 0.91
LU99A; first compound 0.3162 µM
  relative viability: 0.867
LU99A; first compound 1 µM
  relative viability: 0.782
COR-L23; first compound 0.01 µM
  relative viability: 1.11
COR-L23; first compound 0.03162 µM
  relative viability: 0.981
COR-L23; first compound 0.1 µM
  relative viability: 1.14
COR-L23; first compound 0.3162 µM
  relative viability: 1.04
COR-L23; first compound 1 µM
  relative viability: 1.05
NCI-H2023; first compound 0.01 µM
  relative viability: 0.954
NCI-H2023; first compound 0.03162 µM
  relative viability: 0.961
NCI-H2023; first compound 0.1 µM
  relative viability: 0.864
NCI-H2023; first compound 0.3162 µM
  relative viability: 0.853
NCI-H2023; first compound 1 µM
  relative viability: 0.758
NCI-H1944; first compound 0.01 µM
  relative viability: 0.848
NCI-H1944; first compound 0.03162 µM
  relative viability: 0.873
NCI-H1944; first compound 0.1 µM
  relative viability: 0.844
NCI-H1944; first compound 0.3162 µM
  relative viability: 0.946
NCI-H1944; first compound 1 µM
  relative viability: 0.771
NCI-H650; first compound 0.01 µM
  relative viability: 0.968
NCI-H650; first compound 0.03162 µM
  relative viability: 0.992
NCI-H650; first compound 0.1 µM
  relative viability: 1.06
NCI-H650; first compound 0.3162 µM
  relative viability: 1.09
NCI-H650; first compound 1 µM
  relative viability: 1.13
H3255; first compound 0.01 µM
  relative viability: 0.898
H3255; first compound 0.03162 µM
  relative viability: 0.915
H3255; first compound 0.1 µM
  relative viability: 1.04
H3255; first compound 0.3162 µM
  relative viability: 0.943
H3255; first compound 1 µM
  relative viability: 0.85
